Reference: patent US20070128217A1 (priority 2003, published 2007)

Legend:
[1] = tested on: rabbit serum obtained by immunizing a rabbit with the SARS-CoV strain Frankfurt 1; assay type: binding; parameters: Binding of a rabbit serum to linear peptides / Binding of a rabbit serum to looped peptides / Rabbit serum linear peptides / Rabbit serum looped peptides / Binding of a rabbit serum to linear peptides of protein N of SARS-CoV Urbani (Rabbit serum linear peptides) / Binding of a rabbit serum to looped/cyclic peptides of protein N of SARS-CoV Urbani (Rabbit serum looped peptides): unit not given here
[2] = tested on: control sera (pooled serum of ten healthy LUMC hospital workers; commercial negative donor pooled serum from the Dutch bloodbank); assay type: binding, human; parameters: Binding of Control serum LUMC to linear peptides / Binding of Control serum Blood-bank to linear peptides / Binding of Control serum LUMC to looped peptides / Binding of Control Serum Blood-Bank to Looped peptides / Binding of Control serum LUMC to linear peptides of the protein M of SARS-CoV Urbani / Binding of Control serum Blood-bank to linear peptides of the protein M of SARS-CoV Urbani / Binding of Control serum LUMC to looped peptides of the protein M of SARS-CoV Urbani / Binding of Control Serum Blood-Bank to Looped peptides of the protein M of SARS-CoV Urbani: unit not given here
[3] = tested on: antibodies in sera from SARS patients (sera 1a, 1b, 2, 6, 37, 62, London, SARS-yellow, SARS-green); assay type: binding, human; parameters: Binding of serum 6 to linear peptides of protein X1 of SARS-CoV Urbani / Binding of serum 37 to linear peptides of protein X1 of SARS-CoV Urbani / Binding of serum 6 to looped/cyclic peptide (PEPSCAN-ELISA) / Binding of serum 37 to looped/cyclic peptide (PEPSCAN-ELISA) / Binding of serum 37 to looped/cyclic peptides of protein X1 of SARS-CoV Urbani / Binding of serum 6 to linear peptides of protein X2 / Binding of serum 37 to linear peptides of protein X2 / Binding of serum 37 to looped/cyclic peptides of protein X2 of SARS-CoV Urbani / Binding of serum 6 to linear peptides of protein M of SARS-CoV Urbani / Binding of serum 37 to linear peptides of protein M of SARS-CoV Urbani / Binding of serum 6 to looped/cyclic peptides of protein M of SARS-CoV Urbani / Binding of serum 37 to looped/cyclic peptides of protein M of SARS-CoV Urbani / Binding of serum 6 to linear peptides of protein X3 of SARS-CoV Urbani / Binding of serum 37 to linear peptides of protein X3 of SARS-CoV Urbani / Binding of serum 37 to looped/cyclic peptides of protein X3 of SARS-CoV Urbani / Binding of serum 6 to linear peptides of protein X4 of SARS-CoV Urbani / Binding of serum 37 to linear peptides of protein X4 of SARS-CoV Urbani / Binding of serum 37 to looped/cyclic peptides of protein X4 of SARS-CoV Urbani / Binding of serum 6 to linear peptides of protein X5 of SARS-CoV Urbani / Binding of serum 37 to linear peptides of protein X5 of SARS-CoV Urbani / Binding of serum 37 to looped/cyclic peptides of protein X5 of SARS-CoV Urbani / Binding of serum 6 to linear peptides of protein N of SARS-CoV Urbani / Binding of serum 37 to linear peptides of protein N of SARS-CoV Urbani / Binding of serum 6 to linear peptide (PEPSCAN-ELISA) / Binding of serum 1a to looped/cyclic peptides of protein N of SARS-CoV Urbani / Binding of serum 1b to looped/cyclic peptides of protein N of SARS-CoV Urbani / Binding of serum 2 to looped/cyclic peptides of protein N of SARS-CoV Urbani / Binding of serum 6 to looped/cyclic peptides of protein N of SARS-CoV Urbani / Binding of serum 37 to looped/cyclic peptides of protein N of SARS-CoV Urbani / Binding of serum 62 to looped/cyclic peptides of protein N of SARS-CoV Urbani / Binding of serum London to looped/cyclic peptides of protein N of SARS-CoV Urbani / Binding of serum SARS-green to looped/cyclic peptides of protein N of SARS-CoV Urbani: unit not given here

CIPYNSVTDTIVVTE
Binding of a rabbit serum to linear peptides [1]: 0.1 | Binding of a rabbit serum to looped peptides [1]: 0.4 | Binding of Control Serum Blood-Bank to Looped peptides [2]: 0.6 | Binding of Control serum Blood-bank to linear peptides [2]: 0.5 | Binding of Control serum LUMC to linear peptides [2]: 0.6 | Binding of Control serum LUMC to looped peptides [2]: 0.5 | Binding of serum 1a to linear peptides of protein X1 of SARS-CoV Urbani [3]: 0.7 | Binding of serum 1b to linear peptides of protein X1 of SARS-CoV Urbani [3]: 0.6 | Binding of serum 1b to looped/cyclic peptides of protein X1 of SARS-CoV Urbani [3]: 0.4 | Binding of serum 2 to linear peptides of protein X1 of SARS-CoV Urbani [3]: 0.5 | Binding of serum 2 to looped/cyclic peptides of protein X1 of SARS-CoV Urbani [3]: 0.5 | Binding of serum 6 to linear peptides of protein X1 of SARS-CoV Urbani [3]: 0.5 | Binding of serum 6 to looped/cyclic peptides of protein X1 of SARS-CoV Urbani [3]: 0.2 | Binding of serum 37 to linear peptides of protein X1 of SARS-CoV Urbani [3]: 0.7 | Binding of serum 37 to looped/cyclic peptides of protein X1 of SARS-CoV Urbani [3]: 0.6 | Binding of serum 62 to linear peptides of protein X1 of SARS-CoV Urbani [3]: 0.6 | Binding of serum 62 to looped/cyclic peptides of protein X1 of SARS-CoV Urbani [3]: 0.5 | Binding of serum London to linear peptides of protein X1 of SARS-CoV Urbani [3]: 0.3 | Binding of serum London to looped/cyclic peptides of protein X1 of SARS-CoV Urbani [3]: 0.2 | Binding of serum SARS-green to linear peptides of protein X1 of SARS-CoV Urbani [3]: 0.3 | Binding of serum SARS-green to looped/cyclic peptides of protein X1 of SARS-CoV Urbani [3]: 0.3 | Binding of serum SARS-yellow to linear peptides of protein X1 of SARS-CoV Urbani [3]: 0.5 | Binding of serum SARS-yellow to looped/cyclic peptides of protein X1 of SARS-CoV Urbani [3]: 0.4

TRPLMESELVIGAVI
Rabbit serum linear peptides [1]: 0.2 | Rabbit serum looped peptides [1]: 0.3 | Binding of Control Serum Blood-Bank to Looped peptides of the protein M of SARS-CoV Urbani [2]: 1.1 | Binding of Control serum Blood-bank to linear peptides of the protein M of SARS-CoV Urbani [2]: 0.9 | Binding of Control serum LUMC to linear peptides of the protein M of SARS-CoV Urbani [2]: 1.0 | Binding of Control serum LUMC to looped peptides of the protein M of SARS-CoV Urbani [2]: 1.0 | Binding of serum 1a to linear peptides of protein M of SARS-CoV Urbani [3]: 0.8 | Binding of serum 1b to linear peptides of protein M of SARS-CoV Urbani [3]: 0.7 | Binding of serum 2 to linear peptides of protein M of SARS-CoV Urbani [3]: 0.7 | Binding of serum 6 to linear peptides of protein M of SARS-CoV Urbani [3]: 0.6 | Binding of serum 37 to linear peptides of protein M of SARS-CoV Urbani [3]: 0.7 | Binding of serum 62 to linear peptides of protein M of SARS-CoV Urbani [3]: 0.6 | Binding of serum London to linear peptides of protein M of SARS-CoV Urbani [3]: 0.3 | Binding of serum SARS-green to linear peptides of protein M of SARS-CoV Urbani [3]: 0.8 | Binding of serum SARS-yellow to linear peptides of protein M of SARS-CoV Urbani [3]: 0.2 | Recognition of the peptide by sera of SARS-CoV infected individuals, and form (linear, looped/cyclic) in which it is recognized [3]: recognized in looped/cyclic form

EAQFLYLYALIYFLQ
Binding of a rabbit serum to linear peptides [1]: 0.1 | Binding of a rabbit serum to looped peptides [1]: 0.5 | Binding of Control Serum Blood-Bank to Looped peptides [2]: 0.4 | Binding of Control serum Blood-bank to linear peptides [2]: 0.3 | Binding of Control serum LUMC to linear peptides [2]: 0.5 | Binding of Control serum LUMC to looped peptides [2]: 0.5 | Binding of serum 1a to linear peptides of protein X1 of SARS-CoV Urbani [3]: 0.7 | Binding of serum 1a to looped/cyclic peptide (PEPSCAN-ELISA) [3]: 0.5 | Binding of serum 1b to linear peptides of protein X1 of SARS-CoV Urbani [3]: 0.4 | Binding of serum 1b to looped/cyclic peptide (PEPSCAN-ELISA) [3]: 0.3 | Binding of serum 2 to linear peptides of protein X1 of SARS-CoV Urbani [3]: 0.6 | Binding of serum 2 to looped/cyclic peptide (PEPSCAN-ELISA) [3]: 0.4 | Binding of serum 6 to linear peptides of protein X1 of SARS-CoV Urbani [3]: 0.4 | Binding of serum 6 to looped/cyclic peptide (PEPSCAN-ELISA) [3]: 0.2 | Binding of serum 37 to linear peptides of protein X1 of SARS-CoV Urbani [3]: 0.5 | Binding of serum 37 to looped/cyclic peptide (PEPSCAN-ELISA) [3]: 0.5 | Binding of serum 62 to linear peptides of protein X1 of SARS-CoV Urbani [3]: 0.4 | Binding of serum 62 to looped/cyclic peptide (PEPSCAN-ELISA) [3]: 0.5 | Binding of serum London to linear peptides of protein X1 of SARS-CoV Urbani [3]: 0.2 | Binding of serum London to looped/cyclic peptide (PEPSCAN-ELISA) [3]: 0.2 | Binding of serum SARS-green to linear peptides of protein X1 of SARS-CoV Urbani [3]: 0.1 | Binding of serum SARS-green to looped/cyclic peptide (PEPSCAN-ELISA) [3]: 0.2 | Binding of serum SARS-yellow to linear peptides of protein X1 of SARS-CoV Urbani [3]: 0.2 | Binding of serum SARS-yellow to looped/cyclic peptide (PEPSCAN-ELISA) [3]: 0.3
